Measured values taken from patent US20100129370A1, “Trefoil Factors and Methods of Treating Proliferation Disorders Using Same” (priority 2004, published 2010).

Columns and labels:
Type in all cases: cell-based, human
TFF3 = TFF3 transcript levels (RT-PCR) in MCF7 cells treated with E2 or TAM; conditions: 10 nM E2 or 1 μM TAM, 24 hours, FIG. 7A
Experimental: RT-PCR was performed in a final volume of […] containing 0.2 μg of mRNA template, 0.6 μM primers, […] of enzyme mix, 400 μM of each dNTP, 10 reaction buffer, and 10 Q-Solution by use of the Qiagen One-step RT-PCR kit. RNA template was reverse-transcribed into cDNA for 30 min at 50° C.; Hotstart TaqDNA polymerase was activated by heating for 15 min at 95° C.; the denatured cDNA templates were amplified by the following cycles: 94° C./30 s, 55° C./30 s, and 72° C./60 s. A final extension was performed for 10 min at 72° C. In order to compare the PCR products semiquantitatively, 15-40 cycles of PCR (annealing temperature 55° C.) were performed to determine the linearity of the PCR amplification, and the amplified β-actin cDNA served as an internal control for cDNA quantity and quality. All RNA samples were treated with DNase I to avoid genomic DNA contaminations.
(§1) It was of interest to determine if the expression of TFF3 is related to estrogen receptor status. MCF7 cells were cultured in phenol red free RPMI 1640 containing 10% dextran coated charcoal stripped fetal bovine serum in a 6 well plate for 24 hours. Then the cells were changed to treatment media containing 10 nM E2 or 1 μM TAM and cultured for 24 hours in the same. Untreated cells cultured in serum free media acted as controls.

TFF1 promoter = TFF1 promoter activity in MCF7 cells treated with E2 or TAM; conditions: 24 hours treatment, FIG. 9B
Experimental: as §1, with “MCF7 cells produce endogenous levels” for “It was”, “TFF1.” for “interest to determine if the expression of TFF3 is related to estrogen receptor status.”

TFF1 = TFF1 transcript levels (RT-PCR) in MCF7 cells treated with E2 or tamoxifen; conditions: 10 nM E2 or 1 μM TAM, 24 hours, FIG. 9A
Experimental: as §1, with “MCF7 cells produce endogenous levels” for “It was”, “TFF1.” for “interest to determine if the expression of TFF3 is related to estrogen receptor status.”

[1] = system: MCF7-VECTOR and MCF7-TFF3 cells; assay: Total cell number assay in estrogen-depleted media with estrogen supplement; conditions: estrogen supplemented to estrogen-depleted media, FIG. 10A
Experimental: (§2) MCF7-VECTOR and MCF7-TFF3 cells were cultured in phenol red free RPMI 1640 media with 10% dextran coated charcoal stripped fetal bovine serum.

MCF-TFF3 cells = assay: Soft agar colony formation in estrogen-depleted media with estrogen added; conditions: estrogen added to estrogen-depleted media, MCF-TFF3, FIG. 10B
Experimental: as §2

TFF3 promoter = TFF3 promoter activity in MCF-7 cells treated with E2 or TAM; conditions: 24 hours treatment, FIG. 7B, p<0.05
Experimental: as §1

MCF-7-TamR cells = assay: Cell morphology assay, MCF-7-TamR cells; conditions: single agent, 48 h, FIG. 19
Experimental: Tamoxifen resistant MCF-7-Tam^R cells were plated at a concentration of 5×10^3 cells/well in 96-well plates in 100 μl of phenol red free RPMI 1640 medium containing dextran coated charcoal stripped 10% FBS. The plates were incubated at 37° C. for 24 h to allow the cells to reattach and re-equilibrate. Without removing any medium, anti-TFF3 antibody and/or tamoxifen were then added at twice the final concentration in a volume of 100 μl of the culture media. After 48 h images of cells were taken at 10× magnification under phase contrast microscope (Olympus IX70).
Cells were plated in phenol red free RPMI 1640 medium containing dextran coated charcoal stripped 10% FBS at 5×10^3 cells/100 μl/well in 96-well plates. After 24 hours incubation, anti-TFF3 antibody and/or tamoxifen (TAM) were then added at twice the final concentration in a volume of 100 μl. The cells were then taken photos using Olympus phase contrast microscope under 10× magnification. CK-09 is the pre-immune sera for the rabbit polyclonal antibodies of human TFF3 (anti-09).

CEACAM6 gene = assay: CEACAM6 luciferase reporter assay in MCF-7 cells; conditions: MCF-7 co-transfected with expression plasmid, 36 hours post transfection

Compound	transcript levels of TFF3 (TFF3)	TFF1 promoter activity (TFF1 promoter)	transcript levels of TFF1 (TFF1)	total cell number [1]	soft agar colony numbers (MCF-TFF3 cells)	TFF3 promoter activity (TFF3 promoter)	cell morphology / cell death (MCF-7-TamR cells)	stimulation of CEACAM6 expression compared with control vector (CEACAM6 gene)
C[C@]12CC[C@@H]3c4ccc(O)cc4CC[C@H]3[C@@H]1CC[C@@H]2O [E2, estradiol]	very high increased transcript levels	increase	very significant increase	brings back the total cell number to the control cells	further increases the colony numbers significantly	increase	–	–
CC/C(=C(\c1ccccc1)c1ccc(OCCN(C)C)cc1)c1ccccc1 [TAM, tamoxifen]	significantly but not as high transcript levels	increase	very significant increase	–	–	increase	look healthy and similar to untreated control	–
TFF3: wild type human TFF3 expressed from plasmid in MCF-7 cells (EEYVGLSANQCAVPAKDRVDCGYPHVTPKECNNRGCCFDSRIPGVPWCFKPLQEAECTF)	–	–	–	–	–	–	–	two fold
